pEC50: −log10 of the molar value. The source made the active and inactive calls. How the calls were made is not given here.
Legend:
NB7+Caspase-8 = assay: TRAIL sensitizers in caspase-8 expressing neuroblastoma cells, dose response, NB7 cells plus caspase-8, luminescence, panel (AID 652002); conditions: NB7 neuroblastoma +caspase-8, TRAIL sensitization, luminescence viability, with TRAIL
[1] = as above; conditions: NB7 neuroblastoma +caspase-8, no TRAIL, compound-alone cytotoxicity counter-screen, luminescence viability, NB7+Caspase-8; for EC50: mean of runs; for pEC50: single replicate panel EC50
[2] = biological target: Tumor necrosis factor receptor superfamily member 10B (Homo sapiens) (UniProt O14763); assay: as above; conditions: NB7 neuroblastoma +caspase-8, TRAIL sensitization, luminescence viability; NB7+Caspase-8; with TRAIL, mean of runs
[3] = run 1, single replicate panel EC50
[4] = run 2, single replicate panel EC50

Chain of Tumor necrosis factor receptor superfamily member 10B (Homo sapiens) (O14763 whole entry, looked up): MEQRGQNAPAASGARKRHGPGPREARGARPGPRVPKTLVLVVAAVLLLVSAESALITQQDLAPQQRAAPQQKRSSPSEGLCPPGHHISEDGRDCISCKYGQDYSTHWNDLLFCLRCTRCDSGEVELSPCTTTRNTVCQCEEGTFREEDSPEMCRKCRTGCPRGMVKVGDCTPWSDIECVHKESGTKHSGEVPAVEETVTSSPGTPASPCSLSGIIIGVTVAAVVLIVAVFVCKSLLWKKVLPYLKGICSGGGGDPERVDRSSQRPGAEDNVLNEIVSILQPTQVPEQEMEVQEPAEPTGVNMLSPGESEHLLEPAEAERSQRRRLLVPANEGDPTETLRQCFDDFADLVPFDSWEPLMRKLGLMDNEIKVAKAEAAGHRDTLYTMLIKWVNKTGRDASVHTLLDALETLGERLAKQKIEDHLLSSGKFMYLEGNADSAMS

| SMILES | pEC50 (NB7+Caspase-8; [3]) | pEC50 (NB7+Caspase-8; [4]) | EC50 [1] | pEC50 ([1]; run 1) | pEC50 ([1]; run 2) | EC50 [2] |
| --- | --- | --- | --- | --- | --- | --- |
| O=C(NCC1CCCO1)c1ccc2c3n(nc2c1)-c1ccccc1CO3 (stereo not given) | < 4.90 | 5.08 | > 12.5 µM (inactive) | < 4.90 | < 4.90 | inactive |
| O=C(Nc1ccc2c(c1)OCCO2)NC1CCCCC1 | < 4.90 | 4.92 | > 12.5 µM (inactive) | < 4.90 | < 4.90 | inactive |
| O=c1cc(-c2ccccc2)nc2cc(-c3ccc(F)cc3)[nH]n12 | < 4.90 | < 4.90 | > 12.5 µM (inactive) | < 4.90 | < 4.90 | > 12.5 µM (inactive) |
| Cn1c(=O)c2c(SCC(=O)Nc3ccccc3F)nc(C3CC3)nc2n(C)c1=O | < 4.90 | < 4.90 | > 12.5 µM (inactive) | < 4.90 | < 4.90 | > 12.5 µM (inactive) |
| Cc1cccc(CC(=O)Nc2cc(C)c3c(=O)oc4ccccc4c3n2)c1 | < 4.90 | < 4.90 | > 12.5 µM (inactive) | < 4.90 | < 4.90 | > 12.5 µM (inactive) |
| O/C(=C\c1ccc2ccccc2n1)c1ccc(O)cc1O | < 4.90 | 5.12 | > 12.5 µM (inactive) | < 4.90 | < 4.90 | inactive |
| O=C1Cc2c(-c3ccccc3)cc(-c3cccc(Cl)c3)nc2-c2ccccc2N1 | < 4.90 | < 4.90 | > 12.5 µM (inactive) | < 4.90 | < 4.90 | > 12.5 µM (inactive) |
| COCCNC(=O)c1cc(-c2ccc(-c3ccccc3)cc2)nc2ccccc12 | < 4.90 | 5.20 | inactive | < 4.90 | 5.68 | inactive |
| CCOC(=O)c1sc(NC(=O)c2cccc(S(=O)(=O)N3CCc4ccccc43)c2)c(C#N)c1C | < 4.90 | < 4.90 | > 12.5 µM (inactive) | < 4.90 | < 4.90 | > 12.5 µM (inactive) |
| O=C(ONC1=NCCCCC1)c1ccc(Cl)cc1 | < 4.90 | < 4.90 | inactive | < 4.90 | 5.13 | > 12.5 µM (inactive) |
| CN1C[C@@H]2[C@@H]3C(=O)N(Cc4ccccc4)C(=O)[C@@H]3[C@](Cc3ccccc3)(C1=O)N2C(=O)c1ccc(C(C)(C)C)cc1 | < 4.90 | < 4.90 | > 12.5 µM (inactive) | < 4.90 | < 4.90 | > 12.5 µM (inactive) |
| CN(C)S(=O)(=O)c1ccc(C(=O)Nc2nnc(SCC(=O)NCC3CCCO3)s2)cc1 (stereo not given) | < 4.90 | < 4.90 | > 12.5 µM (inactive) | < 4.90 | < 4.90 | > 12.5 µM (inactive) |
| CCOc1ccc(NC(=O)c2ccco2)cc1 | < 4.90 | 5.16 | inactive | 5.16 | 4.97 | inactive |
| Cc1ccc2c(c1)C(=NC1CCCCC1)c1cc3ccccc3nc1-2 | < 4.90 | < 4.90 | > 12.5 µM (inactive) | < 4.90 | < 4.90 | > 12.5 µM (inactive) |
| CC(C)(C)OC(=O)[C@H](Cc1ccccc1)NC(=O)c1[nH]cnc1C(=O)Nc1ccccc1F | < 4.90 | < 4.90 | > 12.5 µM (inactive) | < 4.90 | < 4.90 | > 12.5 µM (inactive) |
